Measurements reported in ChEMBL document CHEMBL4765425, “Synthesis of 1,3,4-oxadiazole derivatives with anticonvulsant activity and their binding to the GABA receptor” (Eur J Med Chem, 2020).
The source made the active and inactive calls. The rule behind the calls is not given here.

Assays:
[1] = tested on: Mus musculus; test: Anticonvulsant activity in Kunming mouse assessed as reduction in MES-induced seizure at 300 mg/kg, ip measured after 30 mins; type: functional, organism-based
[2] = tested on: Mus musculus; test: Anticonvulsant activity in Kunming mouse assessed as reduction in ScPTZ-induced seizure at 300 mg/kg, ip measured after 30 mins; type: functional, organism-based
[3] = Neurotoxicity in Kunming mouse at 100 mg/kg, ip measured after 30 mins by rotarod test; type: toxicity, organism-based; conditions: in vivo, 0.5 h
[4] = Neurotoxicity in Kunming mouse at 300 mg/kg, ip measured after 30 mins by rotarod test; type: toxicity, organism-based; conditions: in vivo, 0.5 h
[5] = tested on: Mus musculus; test: Anticonvulsant activity in Kunming mouse assessed as reduction in MES-induced seizure at 100 mg/kg, ip measured after 30 mins; type: functional, organism-based
[6] = tested on: Mus musculus; test: Anticonvulsant activity in Kunming mouse assessed as reduction in ScPTZ-induced seizure at 100 mg/kg, ip measured after 30 mins; type: functional, organism-based
[7] = tested on: Mus musculus; test: Anticonvulsant activity in ip dosed Kunming mouse assessed as reduction in MES-induced seizure measured after 30 mins; type: functional; conditions: 0.5 h
[8] = tested on: Mus musculus; test: Anticonvulsant activity in ip dosed Kunming mouse assessed as reduction in ScPTZ-induced seizure measured after 30 mins; type: functional; conditions: 0.5 h
[9] = Neurotoxicity in ip dosed Kunming mouse measured after 30 mins by rotarod test; type: toxicity, organism-based; conditions: in vivo
[10] = Protection index, ratio of TD50 for neurotoxicity in ip dosed Kunming mouse to ED50 for anticonvulsant activity in ip dosed MES-induced Kunming mouse; type: toxicity, organism-based; conditions: in vivo, read-out: TI
[11] = Protection index, ratio of TD50 for neurotoxicity in ip dosed Kunming mouse to ED50 for anticonvulsant activity in ip dosed ScPTZ-induced Kunming mouse; type: toxicity, organism-based; conditions: in vivo, read-out: TI
[12] = Displacement of [3H]flunitrazepam from GABA-A receptor benzodiazepine site in mouse cerebellum synaptosomal membrane; type: subcellular, Synaptosome
[13] = tested on: Mus musculus; test: Anticonvulsant activity in Kunming mouse assessed as reduction in MES-induced seizure at 30 mg/kg, ip measured after 30 mins; type: functional, organism-based
[14] = tested on: Mus musculus; test: Anticonvulsant activity in Kunming mouse assessed as reduction in ScPTZ-induced seizure at 30 mg/kg, ip measured after 30 mins; type: functional, organism-based
[15] = tested on: Mus musculus; test: Anticonvulsant activity in Kunming mouse assessed as reduction in MES-induced seizure at 2 mg/kg, ip measured after 30 mins; type: functional, organism-based
[16] = tested on: Rattus norvegicus; test: Anxiolytic activity in Wistar rat assessed as increase in time spent in open sided arms at 1 mg/kg, ip measured for 5 mins by elevated plus maze test; type: functional, organism-based

SMILES	Activity [1]	Activity [2]	Activity [3]	Activity [4]	Activity [5]	Activity [6]	further results
O=C1CCc2cc(OCc3nnc(SCc4cccc(C(F)(F)F)c4)o3)ccc2N1	Active	Active	Non-Toxic	Non-Toxic			
CCCCCCSc1nnc(COc2ccc(NC(C)=O)cc2)o1			Non-Toxic	Non-Toxic	Active	Active	ED50 [7]: 20.9 mg/kg; ED50 [8]: 26.8 mg/kg; TD50 at 0.5 h [9]: 420 mg/kg; selectivity ratio [10]: 20.1; selectivity ratio [11]: 15.6; IC50 [12]: 4.12 µM
CCCCCCCCSc1nnc(COc2ccc(NC(C)=O)cc2)o1			Non-Toxic	Non-Toxic			Activity [13]: inactive
CCCCCCCCCSc1nnc(COc2ccc(NC(C)=O)cc2)o1			Non-Toxic	Non-Toxic	inactive	inactive	
CC(=O)Nc1ccc(OCc2nnc(SCc3cccc(C(F)(F)F)c3)o2)cc1	Active	Active	Non-Toxic	Non-Toxic			
Cc1ccccc1CSc1nnc(COc2ccc3c(c2)CCC(=O)N3)o1	Active	Active	Non-Toxic	Non-Toxic			
CC(=O)Nc1ccc(OCc2nnc(SCc3ccccc3)o2)cc1			Non-Toxic	Non-Toxic			
O=C1CCc2cc(OCc3nnc(SCc4cccc(Cl)c4)o3)ccc2N1	Active	Active	Non-Toxic	Non-Toxic			
CC(=O)Nc1ccc(OCc2nnc(SCc3ccc(C(F)(F)F)cc3)o2)cc1			Non-Toxic	Non-Toxic	Active	Active	
CCCCCCSc1nnc(COc2ccc3c(c2)CCC(=O)N3)o1			Non-Toxic	Non-Toxic	Active	Active	Activity [13]: Active; ED50 [7]: 10.4 mg/kg; ED50 [8]: 17.9 mg/kg; TD50 at 0.5 h [9]: 466 mg/kg; selectivity ratio [10]: 44.7; selectivity ratio [11]: 26; IC50 [12]: 0.88 µM
O=C1CCc2cc(OCc3nnc(SCc4cccc(F)c4)o3)ccc2N1			Non-Toxic	Non-Toxic			
O=C1CCc2cc(OCc3nnc(SCc4ccc(F)cc4)o3)ccc2N1		Active	Non-Toxic	Non-Toxic	inactive		
CC(=O)Nc1ccc(OCc2nnc(SCc3ccc(C)cc3)o2)cc1	Active	Active	Non-Toxic	Non-Toxic			
CC(=O)Nc1ccc(OCc2nnc(SCc3ccc(Cl)cc3)o2)cc1			Non-Toxic	Non-Toxic	inactive	inactive	
CCCCSc1nnc(COc2ccc(NC(C)=O)cc2)o1			Non-Toxic	Non-Toxic			Activity [13]: inactive
O=C1CCc2cc(OCc3nnc(SCc4ccc(C(F)(F)F)cc4)o3)ccc2N1			Non-Toxic	Non-Toxic	Active	Active	ED50 [7]: 23.1 mg/kg; ED50 [8]: 27.6 mg/kg; TD50 at 0.5 h [9]: 376 mg/kg; selectivity ratio [10]: 16.2; selectivity ratio [11]: 13.6; IC50 [12]: 5.28 µM
O=C1CCc2cc(OCc3nnc(SCc4ccccc4)o3)ccc2N1	Active		Non-Toxic	Non-Toxic			
CCCCCCCSc1nnc(COc2ccc(NC(C)=O)cc2)o1			Non-Toxic	Non-Toxic			
CC(=O)Nc1ccc(OCc2nnc(SCc3cccc(C)c3)o2)cc1			Non-Toxic	Non-Toxic			
O=C1CCc2cc(OCc3nnc(SCc4ccccc4C(F)(F)F)o3)ccc2N1	Active	Active	Non-Toxic	Non-Toxic			
CC(=O)Nc1ccc(OCc2nnc(SCc3ccc(F)cc3)o2)cc1	Active	Active	Non-Toxic	Non-Toxic			
CCC1(C)CC(=O)NC1=O (stereo unspecified) [ETHOSUXIMIDE]			Non-Toxic				ED50 [8]: 106 mg/kg; TD50 at 0.5 h [9]: 343 mg/kg; selectivity ratio [11]: 3.2

SMILES	Activity [1]	Activity [2]	Activity [3]	Activity [4]	Activity [5]	Activity [6]	further results
CCCCCCCSc1nnc(COc2ccc3c(c2)CCC(=O)N3)o1	Active		Non-Toxic	Non-Toxic			
O=C1CCc2cc(OCc3nnc(SCc4ccc(Cl)cc4)o3)ccc2N1			Non-Toxic	Non-Toxic		inactive	
CCCCCSc1nnc(COc2ccc(-n3cnnc3)cc2)o1			Non-Toxic	Non-Toxic	Active	Active	Activity [13]: Active; ED50 [7]: 18.7 mg/kg; ED50 [8]: 27.9 mg/kg; TD50 at 0.5 h [9]: 421 mg/kg; selectivity ratio [10]: 22.5; selectivity ratio [11]: 15.1; IC50 [12]: 3.43 µM
CC(=O)Nc1ccc(OCc2nnc(SCc3cccc(F)c3)o2)cc1			Non-Toxic	Non-Toxic	inactive	inactive	
CC(=O)Nc1ccc(OCc2nnc(SCc3ccccc3C)o2)cc1	Active	Active	Non-Toxic	Non-Toxic			
Cc1cccc(CSc2nnc(COc3ccc4c(c3)CCC(=O)N4)o2)c1	Active	Active	Non-Toxic	Non-Toxic			
CCCCSc1nnc(COc2ccc(-n3cnnc3)cc2)o1	Active		Non-Toxic	Non-Toxic			
Cc1ccc(CSc2nnc(COc3ccc4c(c3)CCC(=O)N4)o2)cc1	Active		Non-Toxic	Non-Toxic	Active		
O=C1CCc2cc(OCc3nnc(SCc4ccccc4F)o3)ccc2N1	Active	Active	Non-Toxic	Non-Toxic			
CC(=O)Nc1ccc(OCc2nnc(SCc3ccccc3Cl)o2)cc1	Active	Active	Non-Toxic	Non-Toxic			
CCCCCCCCSc1nnc(COc2ccc3c(c2)CCC(=O)N3)o1	Active		Non-Toxic	Non-Toxic			Activity [13]: inactive
O=C1CCc2cc(OCc3nnc(SCc4ccccc4Cl)o3)ccc2N1	Active		Non-Toxic	Non-Toxic		inactive	
CC(=O)Nc1ccc(OCc2nnc(SCc3ccccc3F)o2)cc1	Active	Active	Non-Toxic	Non-Toxic			Activity [14]: inactive
CCCCCSc1nnc(COc2ccc(NC(C)=O)cc2)o1			Non-Toxic	Non-Toxic	Active	Active	ED50 [7]: 22.6 mg/kg; ED50 [8]: 28.1 mg/kg; TD50 at 0.5 h [9]: 389 mg/kg; selectivity ratio [10]: 17.2; selectivity ratio [11]: 13.8; IC50 [12]: 1.29 µM
CCCCCCCSc1nnc(COc2ccc(-n3cnnc3)cc2)o1	Active	Active	Non-Toxic	Non-Toxic			Activity [13]: inactive; Activity [14]: inactive
CC(=O)Nc1ccc(OCc2nnc(SCc3ccccc3C(F)(F)F)o2)cc1			Non-Toxic	Non-Toxic			
CCCCSc1nnc(COc2ccc3c(c2)CCC(=O)N3)o1	Active	Active	Non-Toxic	Non-Toxic			
CC(=O)Nc1ccc(OCc2nnc(SCc3cccc(Cl)c3)o2)cc1			Non-Toxic	Non-Toxic	inactive	inactive	
CCCCCCSc1nnc(COc2ccc(-n3cnnc3)cc2)o1			Non-Toxic	Non-Toxic	Active	Active	ED50 [7]: 26.6 mg/kg; ED50 [8]: 28.4 mg/kg; TD50 at 0.5 h [9]: 385 mg/kg; selectivity ratio [10]: 14.4; selectivity ratio [11]: 13.5; IC50 [12]: 9.31 µM
CCCCCCCCCSc1nnc(COc2ccc3c(c2)CCC(=O)N3)o1	Active		Non-Toxic	Non-Toxic		inactive	
CN1C(=O)CN=C(c2ccccc2)c2cc(Cl)ccc21 [DIAZEPAM]							Activity [15]: Active; IC50 [12]: 0.042 µM; Activity [16]: Active
